How the values were obtained:
Hepatitis C virus = test: Antiviral activity against HCV by replicon assay; assay type: functional, organism-based, Hepacivirus hominis
[1] = Cytotoxicity against human U-87 MG cells measured after 3 days by Celltiter-glo assay; assay type: functional, U-87MG ATCC; conditions: 72 h, time 3 day

| Structure (SMILES) | EC50 (Hepatitis C virus) | CC50 [1] |
| --- | --- | --- |
| C[C@@]1(F)[C@H](O)[C@@H](CO)S[C@@H]1n1ccc(N)nc1=O | > 100 µM |  |
| Nc1ccn([C@@H]2S[C@H](CO)[C@@H](O)C2(F)F)c(=O)n1 | 22.5 µM |  |
| CC(C)OC(=O)[C@@H](C)N[P@](=O)(OC[C@H]1S[C@@H](n2ccc(=O)[nH]c2=O)[C@](C)(F)[C@@H]1O)Oc1ccccc1 | 2.99 µM |  |
| Nc1ccn([C@H]2[C@H](O)[C@H](O)[C@@H](CO)[S+]2[O-])c(=O)n1 (stereo not given in full) | > 100 µM |  |
| C[C@@]1(F)[C@H](O)[C@@H](CO)S[C@H]1n1ccc(N)nc1=O | > 100 µM |  |
| C[C@@]1(F)[C@H](O)[C@@H](CO)S[C@H]1n1ccc(=O)[nH]c1=O | > 100 µM |  |
| C[C@@]1(F)[C@H](O)[C@@H](CO)S[C@@H]1n1ccc(=O)[nH]c1=O | > 100 µM |  |
| Nc1ccn([C@@H]2[S+]([O-])[C@H](CO)[C@@H](O)C2(F)F)c(=O)n1 (mixture of isomers) | 21.8 µM |  |
| Nc1ccn([C@H]2[C@@H](O)[C@H](O)[C@@H](CO)[S+]2[O-])c(=O)n1 (mixture of isomers) | > 100 µM |  |
| O=c1ccn([C@@H]2O[C@H](CO)[C@@H](O)[C@@H]2O)c(=O)[nH]1 [ARAURIDINE] | > 100 µM |  |
| Nc1ccn([C@@H]2O[C@H](CO)[C@@H](O)[C@@H]2O)c(=O)n1 [CYTARABINE] | 0.16 µM | 0.19 µM |
| Nc1ccn([C@@H]2O[C@H](CO)[C@@H](O)[C@H]2O)c(=O)n1 [CYTIDINE] | 50 µM |  |
| CC(C)OC(=O)[C@H](C)N[P@](=O)(OC[C@H]1O[C@@H](n2ccc(=O)[nH]c2=O)[C@](C)(F)[C@@H]1O)Oc1ccccc1 [SOFOSBUVIR] | 0.03 µM |  |
| O=c1ccn([C@@H]2O[C@H](CO)[C@@H](O)[C@H]2O)c(=O)[nH]1 [URIDINE] | 65.9 µM |  |
